Reference: US11780826B2 (Amgen Inc., priority 2017, dated 2023)

These compounds were tested on Bovine cardiac myofibrils (assay: In vitro model of dose-dependent myofibril ATPase modulation (AC1.4, pyruvate kinase/lactate dehydrogenase-coupled ATPase assay at pCa25)). Conditions: concentration at which ATPase activity was 1.4-fold higher than the bottom of the dose curve, mean of a minimum of two independent tests.
Type: biochemical
In short: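 Absorbance at 340 nm tracked ATP hydrolysis through pyruvate kinase/lactate dehydrogenase coupling (0.5 mM NADH, 1.5 mM PEP). Myofibrils from detergent-homogenized bovine heart, 1 mM ATP, pH 6.80, EGTA/CaCl2 buffering. Dose-response curves fitted with a four-parameter Hill equation.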

AC1.4	SMILES
0.5868 µM	O=C(N[C@@H](c1ccc(C(F)(F)F)cc1F)C1CC1)[C@H]1CCCN1C(=O)c1cccc(C2(F)CN(S(=O)(=O)C3CC3)C2)c1 [Example 247, N-((R)-cyclopropyl(2-fluoro-4-(trifluoromethyl)phenyl)methyl)-1-(3-(1-(cyclopropylsulfonyl)-3-fluoro-3-azetidinyl)benzoyl)-D-prolinamide]
0.5915 µM	C[C@@H](NC(=O)[C@H]1CCCN1C(=O)[C@H]1CCCN(S(=O)(=O)N2CC(C#N)C2)C1)c1ccc(C(F)F)cc1 [Example 248, 1-(((3S)-1-((3-cyano-1-azetidinyl)sulfonyl)-3-piperidinyl)carbonyl)-N-((1R)-1-(4-(difluoromethyl)phenyl)ethyl)-D-prolinamide]
0.5932 µM	O=C(N[C@@H](c1ccc(C(F)(F)F)cc1F)C1CC1)[C@H]1C[C@H]2C[C@H]2N1C(=O)c1cccc(S(=O)(=O)CCO)c1 [Example 249, (1R,3R,5R)-N-((R)-cyclopropyl(2-fluoro-4-(trifluoromethyl)phenyl)methyl)-2-(3-((2-hydroxyethyl)sulfonyl)benzoyl)-2-azabicyclo[3.1.0]hexane-3-carboxamide]
0.5978 µM	N#Cc1ccc(CNC(=O)[C@H]2CCCN2C(=O)c2cccc(S(=O)(=O)N3CC(C#N)C3)c2)cc1 [Example 250, 1-((3-((3-cyano-1-azetidinyl)sulfonyl)phenyl)carbonyl)-N-(4-cyanobenzyl)-D-prolinamide]
0.6055 µM	N#CC1CN(S(=O)(=O)c2cccc(C(=O)N3C[C@@H](O)C[C@@H]3C(=O)NCc3ccc(C(F)(F)F)cc3)c2)C1 [Example 251, (4S)-1-((3-((3-cyano-1-azetidinyl)sulfonyl)phenyl)carbonyl)-4-hydroxy-N-(4-(trifluoromethyl)benzyl)-D-prolinamide]
0.6066 µM	O=C(N[C@@H](c1ccc(C(F)(F)F)cc1F)C1CC1)[C@H]1CCCN1C(=O)c1cccc(C(F)(F)F)c1 [Example 252, N-((R)-cyclopropyl(2-fluoro-4-(trifluoromethyl)phenyl)methyl)-1-(3-(trifluoromethyl)benzoyl)-D-prolinamide]
0.6092 µM	CS(=O)(=O)c1cccc(C(=O)N2CCCC[C@@H]2C(=O)N[C@@H](c2ccc(C(F)(F)F)cc2F)C2CC2)c1 [Example 253, (2R)-N-((R)-cyclopropyl(2-fluoro-4-(trifluoromethyl)phenyl)methyl)-1-(3-(methylsulfonyl)benzoyl)-2-piperidinecarboxamide]
0.6139 µM	C[C@@H](NC(=O)[C@H]1CCCN1C(=O)[C@@H]1CN(S(=O)(=O)N2CC(C#N)C2)CCN1)c1ccc(Cl)cc1F [Example 254, N-((1R)-1-(4-chloro-2-fluorophenyl)ethyl)-1-(((2S)-4-((3-cyano-1-azetidinyl)sulfonyl)-2-piperazinyl)carbonyl)-D-prolinamide]
0.6167 µM	CS(=O)(=O)c1cccc(C(=O)N2CCC[C@@H]2C(=O)N[C@@H](c2ccc(Cl)c(F)c2)C2COC2)c1 [Example 255, N-((R)-(4-chloro-3-fluorophenyl)(3-oxetanyl)methyl)-1-(3-(methylsulfonyl)benzoyl)-D-prolinamide]
0.632 µM	Cc1ccc(CNC(=O)[C@H]2CCCN2C(=O)[C@H]2CCCN(S(=O)(=O)N3CC(C#N)C3)C2)c(C)c1 [Example 256, 1-(((3S)-1-((3-cyano-1-azetidinyl)sulfonyl)-3-piperidinyl)carbonyl)-N-(2,4-dimethylbenzyl)-D-prolinamide]
0.6321 µM	N#CC1CN(S(=O)(=O)N2CCN[C@H](C(=O)N3CCC[C@@H]3C(=O)NCc3ccc(Cl)c(Cl)c3)C2)C1 [Example 257, 1-(((2S)-4-((3-cyano-1-azetidinyl)sulfonyl)-2-piperazinyl)carbonyl)-N-(3,4-dichlorobenzyl)-D-prolinamide]
0.6326 µM	COC1CN(S(=O)(=O)c2cccc(C(=O)N3CCC[C@@H]3C(=O)NCc3ccc(C(F)(F)F)cc3)c2)C1 [Example 258, 1-((3-((3-methoxy-1-azetidinyl)sulfonyl)phenyl)carbonyl)-N-(4-(trifluoromethyl)benzyl)-D-prolinamide]
0.6372 µM	CC[C@@H](NC(=O)[C@H]1CCCN1C(=O)c1cccc(S(=O)(=O)N(C)C)c1)c1ccc(Cl)c(F)c1 [Example 259, N-((1R)-1-(4-chloro-3-fluorophenyl)propyl)-1-(3-(dimethylsulfamoyl)benzoyl)-D-prolinamide]
0.639 µM	N#CC1CN(S(=O)(=O)c2cccc(C(=O)N3CCC[C@@H]3C(=O)NCc3ccc(Cl)nc3)c2)C1 [Example 260, N-((6-chloro-3-pyridinyl)methyl)-1-((3-((3-cyano-1-azetidinyl)sulfonyl)phenyl)carbonyl)-D-prolinamide]
0.6468 µM	CS(=O)(=O)c1ccc(C(=O)N2C[C@@H](F)C[C@@H]2C(=O)N[C@@H](c2cc(F)c(Cl)cc2F)C2CC2)cn1 [Example 262, (4S)-N-((R)-(4-chloro-2,5-difluorophenyl)(cyclopropyl)methyl)-4-fluoro-1-((6-(methylsulfonyl)-3-pyridinyl)carbonyl)-D-prolinamide]
0.6526 µM	CC(C)(C(N)=O)c1cccc(C(=O)N2[C@@H](C(=O)N[C@@H](c3cc(F)c(Cl)cc3F)C3COC3)C[C@H]3C[C@H]32)c1 [Example 263, (1R,3R,5R)-2-(3-(1-amino-2-methyl-1-oxo-2-propanyl)benzoyl)-N-((R)-(4-chloro-2,5-difluorophenyl)(3-oxetanyl)methyl)-2-azabicyclo[3.1.0]hexane-3-carboxamide]
0.6615 µM	CS(=O)(=O)c1cccc(C(=O)N2[C@@H](C(=O)N[C@@H](c3ccc(Cl)c(F)c3)C3COC3)C[C@H]3C[C@H]32)c1 [Example 264, (1R,3R,5R)-N-((R)-(4-chloro-3-fluorophenyl)(3-oxetanyl)methyl)-2-(3-(methylsulfonyl)benzoyl)-2-azabicyclo[3.1.0]hexane-3-carboxamide]
0.6674 µM	O=C(N[C@@H](c1cc(F)c(Cl)cc1F)C1CC1)[C@H]1C[C@H]2C[C@H]2N1C(=O)c1cc(C(F)(F)F)ccn1 [Example 266, (1R,3R,5R)-N-((R)-(4-chloro-2,5-difluorophenyl)(cyclopropyl)methyl)-2-((4-(trifluoromethyl)-2-pyridinyl)carbonyl)-2-azabicyclo[3.1.0]hexane-3-carboxamide]
0.6764 µM	N#CC1CN(S(=O)(=O)N2CCC[C@H](C(=O)N3CCC[C@@H]3C(=O)NC(c3ccccc3)c3ccc(Cl)cc3)C2)C1 (stereo partly drawn) [Example 268, (2R)-N-((4-chlorophenyl)(phenyl)methyl)-1-((S)-1-((3-cyanoazetidin-1-yl)sulfonyl)piperidine-3-carbonyl)pyrrolidine-2-carboxamide]
0.6767 µM	CS(=O)(=O)c1ccnc(C(=O)N2C[C@@H](F)C[C@@H]2C(=O)N[C@@H](c2cc(F)c(Cl)cc2F)C2CC2)c1 [Example 269, (4S)-N-((R)-(4-chloro-2,5-difluorophenyl)(cyclopropyl)methyl)-4-fluoro-1-((4-(methylsulfonyl)-2-pyridinyl)carbonyl)-D-prolinamide]
0.6874 µM	C[C@H]1[C@@H](C(=O)N2CCC[C@@H]2C(=O)NCc2ccc(C(F)(F)F)cc2)CCCN1S(=O)(=O)N1CC(C#N)C1 [Example 271, 1-(((2S,3S)-1-((3-cyano-1-azetidinyl)sulfonyl)-2-methyl-3-piperidinyl)carbonyl)-N-(4-(trifluoromethyl)benzyl)-D-prolinamide]
